Assays:
LN229 and HCT116 cells = test: Cancer cell viability; assay type: cell-based, human
CAPRIN1–APP interaction = CAPRIN1–APP interaction (Homo sapiens, UniProt P05067+Q14444); test: In vitro binding assay, recombinant CAPRIN1 and APP (reciprocal co-IP); design: recombinant human CAPRIN1 (full length, 100 ng) was added; purchased Biolegend; settings: concentration-dependent
Experimental: When CAPRIN1 was used as a bait, recombinant CAPRIN1 (200 ng) was mixed with anti‐CAPRIN1 antibodies (1 µg) in IP buffer (25 mM Tris, 150 mM NaCl, 5% Glycerol, and 1% Triton X‐100 at pH 7.4) overnight at 4°C, followed by the addition of Protein‐G agarose beads for 4 h at 4°C. CAPRIN1 conjugated beads were then washed with binding buffer (20 mM HEPES, 100 mM NaCl, 0.01% Triron X‐100, and 5% Glycerol at pH 7.25) before the addition of recombinant human APP (prey) for 1 h at 4°C. Beads were washed and eluted with Laemmli buffer with boiling, followed by Western blotting. When APP was used as a bait, biotin‐conjugated APP antibody (1 µg; 4G8, Biolegend) was pre‐mixed with recombinant APP (100 ng, Biolegend) in pulldown buffer (0.1% NP‐40, 50 mM Tris, 150 mM NaCl, 0.2 mM EDTA, 100 mM KCl, 1 mM MgCl2, 0.2 mM CaCl2, and 10% glycerol) overnight at 4°C, followed by addition of 0.5 mg of Streptavidin magnetic beads (Pierce) for 1 h at 4°C. After washing the beads, recombinant human CAPRIN1 (full length, 100 ng) was added together with dose‐dependent 0043 in the binding buffer for 1 h at 4°C. Beads were washed and eluted with Laemmli buffer with boiling, followed by Western blotting.

HEK‐APP695WT cells = test: CellTiter-Glo cell viability, HEK cells; assay type: cell-based, human; settings: 10 µM, 72 h
iPSC‐Ns = test: Cell viability / cytotoxicity of iPSC-derived neurons; assay type: cell-based, human; settings: AG27606-Ns, 10 µM, 72 h
Experimental: Cytotoxicity test was conducted using Neutral Red Uptake assay. In brief, iPSC‐Ns seeded in 96 well plates (1 × 10^5 cells/well) were treated dose‐dependently for 5 days. Cells were washed with PBS containing CaCl2 and MgCl2 followed by the addition of Neutral red solution (40 µg/mL in PBS, Sigma–Aldrich) and incubation at 37°C for 3 h. Cells were then washed with PBS containing CaCl2 and MgCl2 two times and de‐stained using with Neutral red de‐staining solution on a plate shaker for 30 min, followed by reading at 540 nm with a Microplate reader. Cell viability was determined using the CellTiter‐Glo Luminescent Cell Viability Assay (Promega) following the manufacturer's instructions. […]

[1] = test system: AD iPSC‐derived organoids; test: AD iPSC-derived 3D brain organoids; assay type: cell-based, human
Experimental: For generating brain 3D organoids, Lancaster's protocol and Paşca's protocol were used with minor modifications. In brief, 9000 cells/ 100 µL of each well were seeded in Ultra‐low attachment 96 well U‐bottom plates (Sbio) supplemented with 10 µM of ROCK inhibitor. The next day, 100 µL of mTeSR1 was added, and the cells were cultured as embryonic bodies (EB) for 5 days at 37°C in 5% CO2 incubator. When the size of EB reached 400–600 µm, EBs were transferred into ultra‐low binding 24 well (Corning) with 200 µL of neural differentiation medium (Neurobasal medium (Gibco), 2% B27, 1X Glutamax) with 2 µg/mL of Doxycycline and incubated for 5 days at 37°C in 5% CO2 incubator until the size of EB was 700–800 µm. During this step, one EB was in one well, and the culture medium was changed every day with fresh neural differentiation medium with Doxycycline. At day 10, the EB was embedded into 15 µL of 100% Matrigel (Corning), and the embedded EBs were cultured in neural differentiation medium without Doxycycline in 6 well ultra‐low binding plates (Corning). […]
iPSC‐Ns or HEK‐APP695WT were treated with drugs, and secreted Aβ42 peptides inculture soup were quantified using the Human Amyloid β1‐42 human ELISA kit (Thermo Fisher) according to the manufacturer's protocol. […] Prior to quantification, formic acid‐containing samples were neutralized with 1 M Tris base (pH 11). Aβ40 and Aβ42 levels were measured using human‐specific ELISA kits (Invitrogen) and normalized to total protein concentrations determined by the BCA assay (Thermo Scientific). For Aβ quantification in 3D organoids, 3D organoids’ processing and ELISA analysis were performed with minor modifications from previously described protocols. […] Aβ42 levels in both fractions were measured using human‐specific ELISA kits (Thermo Fisher) according to the manufacturer's instructions. […] Aβ levels were normalized to total protein concentration determined by BCA assay. […]

Chain of CAPRIN1–APP interaction (Q14444 whole entry): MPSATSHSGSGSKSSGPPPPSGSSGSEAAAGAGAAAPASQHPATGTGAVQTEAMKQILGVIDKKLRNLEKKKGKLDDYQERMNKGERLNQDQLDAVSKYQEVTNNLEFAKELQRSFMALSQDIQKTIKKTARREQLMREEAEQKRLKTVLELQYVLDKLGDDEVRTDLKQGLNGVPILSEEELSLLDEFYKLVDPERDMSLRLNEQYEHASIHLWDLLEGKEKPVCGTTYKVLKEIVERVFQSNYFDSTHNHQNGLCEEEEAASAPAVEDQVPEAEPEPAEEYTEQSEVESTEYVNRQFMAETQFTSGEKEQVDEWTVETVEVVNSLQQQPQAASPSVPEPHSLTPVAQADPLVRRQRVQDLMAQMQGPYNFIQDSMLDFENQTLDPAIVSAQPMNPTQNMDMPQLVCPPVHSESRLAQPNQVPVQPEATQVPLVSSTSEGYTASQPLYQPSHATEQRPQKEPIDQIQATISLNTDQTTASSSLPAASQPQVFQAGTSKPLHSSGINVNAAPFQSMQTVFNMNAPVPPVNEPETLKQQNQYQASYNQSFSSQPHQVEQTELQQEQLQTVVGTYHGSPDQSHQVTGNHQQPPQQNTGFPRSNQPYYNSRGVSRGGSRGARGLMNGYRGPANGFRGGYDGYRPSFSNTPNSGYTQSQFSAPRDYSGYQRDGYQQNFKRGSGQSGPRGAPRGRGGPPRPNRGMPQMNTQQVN
Chain of CAPRIN1–APP interaction (P05067 18-770): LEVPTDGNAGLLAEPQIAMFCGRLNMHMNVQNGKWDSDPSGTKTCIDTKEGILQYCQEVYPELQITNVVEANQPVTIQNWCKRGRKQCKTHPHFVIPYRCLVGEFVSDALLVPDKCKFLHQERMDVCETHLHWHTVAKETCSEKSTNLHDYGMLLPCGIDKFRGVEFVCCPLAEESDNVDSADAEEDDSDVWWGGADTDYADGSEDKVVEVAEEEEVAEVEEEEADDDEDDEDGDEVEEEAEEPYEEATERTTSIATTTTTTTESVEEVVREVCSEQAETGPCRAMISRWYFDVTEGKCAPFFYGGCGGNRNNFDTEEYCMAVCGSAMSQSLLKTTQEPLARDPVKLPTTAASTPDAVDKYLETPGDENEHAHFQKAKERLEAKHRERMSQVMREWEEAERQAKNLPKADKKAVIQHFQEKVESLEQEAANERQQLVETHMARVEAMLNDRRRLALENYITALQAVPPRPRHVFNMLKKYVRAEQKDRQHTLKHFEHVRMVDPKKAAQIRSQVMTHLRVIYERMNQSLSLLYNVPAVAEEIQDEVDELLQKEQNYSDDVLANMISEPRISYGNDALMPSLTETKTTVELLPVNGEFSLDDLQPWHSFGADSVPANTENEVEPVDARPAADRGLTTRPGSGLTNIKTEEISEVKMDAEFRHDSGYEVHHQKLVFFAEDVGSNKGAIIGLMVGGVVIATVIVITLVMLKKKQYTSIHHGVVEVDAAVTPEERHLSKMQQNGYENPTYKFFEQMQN

N#Cc1cccc(NC(=O)Nc2nc3ccc(C(=O)N4CCOCC4)cc3s2)c1 [compound 0043]
Cancer cell growth (LN229 and HCT116 cells): no effects
Interaction of recombinant CAPRIN1 and APP (reciprocal co-IP) (CAPRIN1–APP interaction): enhanced the interaction between CAPRIN1 and APP
Cell viability (CellTiter-Glo) (HEK‐APP695WT cells): without inducing cytotoxicity

COc1cccc(NC(=O)Nc2nc3ccc(C(=O)N4CCOCC4)cc3s2)c1 [compound 0152]
Neuronal toxicity (CellTiter-Glo) (iPSC‐Ns): without neuronal toxicity
APP/Aβ42 immunoreactivity in organoids ([1]; AG27606 and UKBi011A organoids, 10 µM): reduced APP/Aβ42 levels
Aβ42 in organoids by ELISA ([1]; AG27606 organoids, RIPA-soluble and formic acid-solubilized fractions): significantly reduced Aβ42 levels
CAPRIN1–APP colocalization in organoids ([1]; AG27606 organoids, treated for three months): increased CAPRIN1–APP colocalization
